Measured values taken from US9844521B2, “Pharmaceutical composition comprising ginger extract or shogaol” (UNIVERSITY-INDUSTRY COOPERATION GROUP OF KYUNG HEE …, priority 2008, dated 2017).

Test system: 2-vessel occlusion cerebral ischemia model
Test: 2-vessel occlusion cerebral ischemia model, neurons in CA1 of hippocampus
Type: in vivo, mouse
Settings: 10 mg/kg in 10% tween 80, immediately after 2VO then once per day for 3 days
Protocol: 7-week old C57BL/6 based male mice (19-22 g) were obtained and nurtured in an animal laboratory at Kyunghee University Graduate School of East-West Medicine Science for one week or more for adaptation. Water and feed were freely supplied, and the temperature (22±2[…]), humidity (53±3%), and a cycle of brightness and darkness (12 hours) were automatically controlled.
Mice were divided into three groups, each of which consisted of 10 mice. Anesthesia was induced in an anesthetic gas (O2: 30%, N2O: 70%, and isoflurane: 2.0%) chamber, and mice of the respective groups were located on an operating table with their backs on the operating table. The skin of each mouse was cut upward by about 1.5 cm from a point where the upper limbs and an intermediate line meet, and then, facing common carotid arteries were exposed without damage of tissues. Tissues and nerves attached to the carotid arteries were dissociated and occlusion was performed thereon by using an aneurism clip for 25 minutes. In this regard, the temperature of the mice was measured by using a rectal thermometer and maintained at 37±0.5 □.
A sham control refers to a group obtained as described above except for the occlusion of the common carotid arteries. Medicine administration was performed immediately after a 2VO step, and thereafter, performed once per day for 3 days. […]

For CCCCC/C=C/C(=O)CCc1ccc(O)c(OC)c1 [shogaol, (E)-1-(4-hydroxy-3-methoxyphenyl)dec-4-en-3-one], the “neuron apoptosis suppression efficacy in CA1” value was 29.5±15.4 % of the 2VO step group.
